One data set has as its target COX-1 (Homo sapiens, UniProt P23219). Put plainly: biochemical.

Values joined by “and” are separate entries in the source; they are usually repeats but may differ in a detail not shown here. Equal entries are not always repeated.

Sequence of COX-1 (P23219 24-599): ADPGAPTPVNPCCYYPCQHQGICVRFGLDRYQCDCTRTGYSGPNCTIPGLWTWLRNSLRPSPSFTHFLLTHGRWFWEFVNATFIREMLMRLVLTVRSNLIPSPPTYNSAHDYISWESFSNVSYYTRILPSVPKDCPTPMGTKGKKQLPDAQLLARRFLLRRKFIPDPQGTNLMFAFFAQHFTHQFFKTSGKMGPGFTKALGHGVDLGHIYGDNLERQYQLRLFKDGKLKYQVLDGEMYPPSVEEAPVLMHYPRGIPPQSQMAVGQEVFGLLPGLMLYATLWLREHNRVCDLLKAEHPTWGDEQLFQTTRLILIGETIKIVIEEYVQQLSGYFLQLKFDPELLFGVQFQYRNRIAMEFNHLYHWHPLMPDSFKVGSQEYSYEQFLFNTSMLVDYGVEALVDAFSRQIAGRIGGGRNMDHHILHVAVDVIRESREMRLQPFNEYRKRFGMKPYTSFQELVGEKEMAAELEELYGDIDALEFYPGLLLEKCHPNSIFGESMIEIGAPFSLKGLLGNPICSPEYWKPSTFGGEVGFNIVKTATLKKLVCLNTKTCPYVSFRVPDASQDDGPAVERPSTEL
Method for COX-1: Evaluation of COX-1 and COX-2 Activity In Vitro
b. Assay for COX-1 and COX-2 Activity
COX activity was assayed as PGE2 formed/μg protein/time using an ELISA to detect the prostaglandin released. CHAPS-solubilized insect cell membranes containing the appropriate COX enzyme were incubated in a potassium phosphate buffer (50 mM, pH 8.0) containing epinephrine, phenol, and heme with the addition of arachidonic acid (10 μM). Compounds were pre-incubated with the enzyme for 10-20 minutes prior to the addition of arachidonic acid. […] The PGE2 formed was measured by standard ELISA technology (Cayman Chemical).

`O=C(O)C1=Cc2c(ccc(Cl)c2-c2ccsc2)OC1C(F)(F)F` (stereo not drawn) [Example 868, 6-Chloro-5-thien-3-yl-2-(trifluoromethyl)-2H-chromene-3-carboxylic acid]: the melting point (in general, the temperature, or range, at which the solid turns liquid) fell in the range of 211 to 213.5 °C.

The compound `CCc1cnc(Oc2cc3c(cc2Cl)C=C(C(=O)O)C(C(F)(F)F)O3)nc1` (stereo not drawn) [Example 864, 6-Chloro-7-[(5-ethylpyrimidin-2-yl)oxy]-2-(trifluoromethyl)-2H-chromene-3-carboxylic acid] returned a melting point of 96.5 to 98 °C.

`Cc1ccc(-c2c(Cl)ccc3c2C=C(C(=O)O)C(C(F)(F)F)O3)cc1` (stereo not drawn) [Example 869, 6-Chloro-5-(4-methylphenyl)-2-(trifluoromethyl)-2H-chromene-3-carboxylic acid] had a melting point of 218 to 220 °C.

`Cc1c(O)c(Cl)cc2c1OC(C(F)(F)F)C(C(=O)O)=C2` (stereo not drawn) [Example 3i, 6-chloro-7-hydroxy-8-methyl-2-(trifluoromethyl)-2H-chromene-3-carboxylic acid]: at COX-1, the IC50 (in general, the concentration that gives 50% inhibition) is above 97.6 µM.

At COX-1, `COCCOc1cc2c(cc1Cl)C=C(C(=O)O)C(C(F)(F)F)O2` (stereo not drawn) [Example 2h, 6-chloro-7-(2-methoxyethoxy)-2-(trifluoromethyl)-2H-chromene-3-carboxylic acid] registered an IC50 above 100 µM.

`CCOc1ccc(Br)c2c1OC(C(F)(F)F)C(C(=O)O)=C2` (stereo not drawn) [Example 24b, 5-bromo-8-ethoxy-2-(trifluoromethyl)-2H-chromene-3-carboxylic acid] registered an IC50 at COX-1 above 500 µM.

In the case of `CC(C)c1cc2c(cc1Cl)C=C(C(=O)O)C(C(F)(F)F)O2` (stereo not drawn) [Example 9f, 6-chloro-7-isopropyl-2-(trifluoromethyl)-2H-chromene-3-carboxylic acid], on COX-1, the IC50 was 147 µM and > 100 µM.

On to `Nc1ccc(Oc2cc3c(cc2Cl)C=C(C(=O)O)C(C(F)(F)F)O3)c(F)c1` (stereo not drawn) [Example 2a, 7-(4-amino-2-fluorophenoxy)-6-chloro-2-(trifluoromethyl)-2H-chromene-3-carboxylic acid], for which the IC50 on COX-1 was < 0.137 µM and 0.347 µM and 0.112 µM.

On to `CCCc1cc(OC(F)(F)F)cc2c1OC(C(F)(F)F)C(C(=O)O)=C2` (racemic) [Example 21i, 8-propyl-6-(trifluoromethoxy)-2-(trifluoromethyl)-2H-chromene-3-carboxylic acid], for which, at COX-1, the IC50 was 20.5 µM and 13.6 µM.

Take `O=C(O)C1=Cc2cc(Cl)c(OCc3ccccc3)cc2OC1C(F)(F)F` (stereo not drawn) [Example 2f, 7-(benzyloxy)-6-chloro-2-(trifluoromethyl)-2H-chromene-3-carboxylic acid]: the IC50 against COX-1 was above 100 µM.

For `CCCCc1cc(OC(F)(F)F)cc2c1OC(C(F)(F)F)C(C(=O)O)=C2` (stereo not drawn) [Example 21r, 8-butyl-6-(trifluoromethoxy)-2-(trifluoromethyl)-2H-chromene-3-carboxylic acid], on COX-1, half-maximal inhibition (IC50) required 83.8 µM.

For the compound `O=C(O)C1=Cc2cc(Cl)c(Cc3ccccc3Cl)cc2OC1C(F)(F)F` (stereo not drawn) [Example 9n, 6-chloro-7-(2-chlorobenzyl)-2-(trifluoromethyl)-2H-chromene-3-carboxylic acid], inhibition against COX-1 was half-maximal at 0.425 µM (IC50).

Take `O=C(O)C1=Cc2cccc(OCc3ccccc3)c2OC1C(F)(F)F` (stereo not drawn) [Example 25g, 8-(benzyloxy)-2-(trifluoromethyl)-2H-chromene-3-carboxylic acid]: the IC50 at COX-1 was > 100 µM and 80.7 µM.

Take `COc1cccc(Cc2ccc3c(c2)OC(C(F)(F)F)C(C(=O)O)=C3)c1` (stereo not drawn) [Example 9w, 7-(3-methoxybenzyl)-2-(trifluoromethyl)-2H-chromene-3-carboxylic acid]: the IC50 against COX-1 is above 100 µM.

Regarding `CC1CCCN(c2cc3c(cc2Cl)C=C(C(=O)O)C(C(F)(F)F)O3)C1` (stereo not drawn) [Example 8b, 6-chloro-7-(3-methylpiperidin-1-yl)-2-(trifluoromethyl)-2H-chromene-3-carboxylic acid], at COX-1, the half-maximal inhibitory concentration (IC50) is 99 µM and 189 µM.

At COX-1, `CCCSc1cc2c(cc1Cl)C=C(C(=O)O)C(C(F)(F)F)O2` (stereo not drawn) [Example 7c, 6-chloro-7-(propylthio)-2-(trifluoromethyl)-2H-chromene-3-carboxylic acid] displayed an IC50 above 100 µM.

As for `O=C(O)C1=Cc2cc(Cl)c(NCc3ccccc3)cc2OC1C(F)(F)F` (stereo not drawn) [Example 8k, 7-(benzylamino)-6-chloro-2-(trifluoromethyl)-2H-chromene-3-carboxylic acid], the IC50 against COX-1 was above 100 µM.

For `O=C(O)C1=Cc2cc(Cl)c(Cc3ccccc3)cc2O[C@@H]1C(F)(F)F` (single isomer, unassigned) [Example 9m], on COX-1, it took 24.1 µM to reach half-maximal inhibition (IC50).

Turning to `O=C(O)C1=Cc2cc(OCC(F)(F)F)cc(Cl)c2OC1C(F)(F)F` (stereo not drawn) [Example 17c, 8-chloro-6-(2,2,2-trifluoroethoxy)-2-(trifluoromethyl)-2H-chromene-3-carboxylic acid], the IC50 at COX-1 was 3.58 µM and 0.623 µM.

For `O=C(O)COc1ccc2c(c1)OC(C(F)(F)F)C(C(=O)O)=C2` (stereo not drawn) [Example 5g, 7-(carboxymethoxy)-2-(trifluoromethyl)-2H-chromene-3-carboxylic acid], the IC50 on COX-1 is above 100 µM.

Compound `CC(C)CNc1c(Cl)cc2c(c1Cl)OC(C(F)(F)F)C(C(=O)O)=C2` (stereo not drawn) [Example 38c, 6,8-dichloro-7-(isobutylamino)-2-(trifluoromethyl)-2H-chromene-3-carboxylic acid] had an IC50 on COX-1 below 0.137 µM.

Take `CCC(CC)COc1c(Cl)cc2c(c1C)OC(C(F)(F)F)C(C(=O)O)=C2` (stereo not drawn) [Example 3b, 6-chloro-7-(2-ethylbutoxy)-8-methyl-2-(trifluoromethyl)-2H-chromene-3-carboxylic acid]: the IC50 on COX-1 is 15.8 µM and 6.7 µM.

On COX-1, `O=C(O)C1=Cc2cc(Cl)c(N3CCC3)cc2OC1C(F)(F)F` (stereo not drawn) [Example 8j, 7-azetidin-1-yl-6-chloro-2-(trifluoromethyl)-2H-chromene-3-carboxylic acid] had an IC50 above 100 µM.

In the case of `CCC(CC)COc1ccc2c(c1C)OC(C(F)(F)F)C(C(=O)O)=C2` (stereo not drawn) [Example 5d, 7-(2-ethylbutoxy)-8-methyl-2-(trifluoromethyl)-2H-chromene-3-carboxylic acid], the IC50 against COX-1 is 31.9 µM and 17.2 µM.

Take `Cc1ccc(Cc2cc3c(cc2Cl)C=C(C(=O)O)C(C(F)(F)F)O3)c(C)c1Cl` (stereo not drawn) [Example 9u, 6-chloro-7-(3-chloro-2,4-dimethylbenzyl)-2-(trifluoromethyl)-2H-chromene-3-carboxylic acid]: on COX-1, half-maximal inhibition (IC50) was put at 5.52 µM.

On to `C=CCc1cc(OC(F)(F)F)cc2c1OC(C(F)(F)F)C(C(=O)O)=C2` (stereo not drawn) [Example 21s, 8-allyl-6-(trifluoromethoxy)-2-(trifluoromethyl)-2H-chromene-3-carboxylic acid], for which, on COX-1, the IC50 is > 100 µM and 119 µM.

Consider `CCCC#Cc1cc(OC(F)(F)F)cc2c1OC(C(F)(F)F)C(C(=O)O)=C2` (stereo not drawn) [Example 21e, 8-pent-1-ynyl-6-(trifluoromethoxy)-2-(trifluoromethyl)-2H-chromene-3-carboxylic acid], for which the IC50 against COX-1 is 6.52 µM and 3.06 µM.

`CCc1cc(OC(F)(F)F)cc2c1OC(C(F)(F)F)C(C(=O)O)=C2` (stereo not drawn) [Example 21g, 8-ethyl-6-(trifluoromethoxy)-2-(trifluoromethyl)-2H-chromene-3-carboxylic acid]: the IC50 at COX-1 is 24.4 µM and 21.6 µM and 9.14 µM and 10.7 µM.

Regarding `CCCC(C)(C)c1ccc2c(c1)OC(C(F)(F)F)C(C(=O)O)=C2` (stereo not drawn) [Example 108, 7-(1,1-dimethylbutyl)-2-(trifluoromethyl)-2H-chromene-3-carboxylic acid], the IC50 at COX-1 was > 100 µM and 169 µM.

In the case of `Cc1cc2c(cc1Cc1ccccc1)OC(C(F)(F)F)C(C(=O)O)=C2` (stereo not drawn) [Example 42a, 7-benzyl-6-methyl-2-(trifluoromethyl)-2H-chromene-3-carboxylic acid], the IC50 against COX-1 is 28.7 µM and 25.2 µM and 14.7 µM.

As for `O=C(O)C1=Cc2cccc(Oc3ccc([N+](=O)[O-])cc3F)c2OC1C(F)(F)F` (stereo not drawn) [Example 25a, 8-(2-fluoro-4-nitrophenoxy)-2-(trifluoromethyl)-2H-chromene-3-carboxylic acid], on COX-1, the IC50 is above 500 µM.

Take `CCC(C)(C)c1ccc2c(c1)OC(C(F)(F)F)C(C(=O)O)=C2` (stereo not drawn) [Example 106, 7-tert-pentyl-2-(trifluoromethyl)-2H-chromene-3-carboxylic acid]: the IC50 against COX-1 was > 100 µM and 93 µM.

`CN(Cc1ccccc1)c1cc2c(cc1Cl)C=C(C(=O)O)C(C(F)(F)F)O2` (stereo not drawn) [Example 8i, 7-[benzyl(methyl)amino]-6-chloro-2-(trifluoromethyl)-2H-chromene-3-carboxylic acid] yielded an IC50 against COX-1 of 14.1 µM.

With `CCN(CC)c1cc2c(cc1Cl)C=C(C(=O)O)C(C(F)(F)F)O2` (stereo not drawn) [Example 8l, 6-chloro-7-(diethylamino)-2-(trifluoromethyl)-2H-chromene-3-carboxylic acid], the half-maximal inhibitory concentration (IC50) at COX-1 was > 33.3 µM and > 11.1 µM and 180 µM and > 100 µM.

Turning to `COc1ccc2c(c1OC)OC(C(F)(F)F)C(C(=O)O)=C2` (stereo not drawn) [Example 4a, 7,8-dimethoxy-2-(trifluoromethyl)-2H-chromene-3-carboxylic acid], the IC50 against COX-1 was above 500 µM.

As to `Cc1cc(Cl)cc2c1O[C@@H](C(F)(F)F)C(C(=O)O)=C2` (single isomer, unassigned) [Example 21u], the IC50 against COX-1 is above 100 µM.

As to `CCCCCc1cc(OC(F)(F)F)cc2c1OC(C(F)(F)F)C(C(=O)O)=C2` (stereo not drawn) [Example 21j, 8-pentyl-6-(trifluoromethoxy)-2-(trifluoromethyl)-2H-chromene-3-carboxylic acid], half-maximal inhibition on COX-1 (IC50) was put at 40.4 µM.

`CCCOc1c(Cl)cc2c(c1C)OC(C(F)(F)F)C(C(=O)O)=C2` (stereo not drawn) [Example 3c, 6-chloro-8-methyl-7-propoxy-2-(trifluoromethyl)-2H-chromene-3-carboxylic acid]: the IC50 against COX-1 was 2.3 µM.

`CCCCOc1c(Cl)c(Cl)c(Cl)c2c1OC(C(F)(F)F)C(C(=O)O)=C2` (stereo not drawn) [Example 28b, 8-butoxy-5,6,7-trichloro-2-(trifluoromethyl)-2H-chromene-3-carboxylic acid]: on COX-1, the midpoint of inhibition, the IC50, lay at 41.7 µM.

At COX-1, `CCCC(=O)NCc1cc2c(cc1Cl)C=C(C(=O)O)C(C(F)(F)F)O2` (stereo not drawn) [Example 16, 7-[(butyrylamino)methyl]-6-chloro-2-(trifluoromethyl)-2H-chromene-3-carboxylic acid] came in with a concentration for half-maximal inhibition (IC50) above 100 µM.

Compound `O=C(O)C1=Cc2ccc(C(=O)c3cccnc3)cc2OC1C(F)(F)F` (stereo not drawn) [Example 11, 7-(pyridin-3-ylcarbonyl)-2-(trifluoromethyl)-2H-chromene-3-carboxylic acid] yielded an IC50 against COX-1 above 100 µM.

In the case of `O=C(O)C1=Cc2cc(Cl)c(Cc3ccccc3)cc2O[C@H]1C(F)(F)F` (single isomer, unassigned) [Example 9l], the IC50 against COX-1 was 3.05 µM and 2.38 µM.
